Source: patent US20100130457A1, “Phenothiazine Derivatives for Treatment of Asthma” (Immune Control, Inc., priority 2008, published 2010)
Entries after “also recorded” stand apart in the source; their conditions may differ. Read-outs that look alike come from different tables or passages of the source.

Columns and labels:
[1] = test system: BALB/c mice, Af-induced allergic airway inflammation and hyperresponsiveness; assay: Murine Aspergillus fumigatus (Af)-induced asthma model, methacholine-induced lung resistance / airway hyperresponsiveness; type: in vivo, mouse
Description: The following experiments were designed to test the efficacy of the compounds of the invention on a murine asthma model. A murine model of Aspergillus fumigatus (Af)-induced allergic airway inflammation and hyperresponsiveness was adapted from Haczku et al. (2001 Am. J. Respir. Cell Mol. Biol. 25: 45-50) to determine the activity of the candicate compounds (FIG. 2).
Briefly, BALB/c mice were sensitized intraperitoneally and challenged intranasally with Af extract as a form of a type of allergen challenge in the presence or absence of dexamethasone. With respect to sensitization, “naïve” mice received intranasal vehicle challenges only, with phosphate-buffered saline (PBS) where as “sensitized’ mice were injected intraperitoneally with 25 μg Af together with alum in 100 μl of PBS on days 1 and 14, followed by intranasal challenge on days 25, 26, and 27 with 25 μg of Af extract in 40 PBS μl in the presence or absence of dexamethasone (2.5 mg/kg in 100 μl saline). On day 28, sensitized mice were treated with the test compound (0.1, 1.0, 10 mg/kg) either one hour before or simultaneously with methacholine challenge (2.5, 5, 10, 20 mg/mL). Methacholine challenge is to induce airway constriction.
The following experiments were designed to test the efficacy of the compounds of the invention on a murine asthma model. A murine model of Aspergillus fumigatus (Af)-induced allergic airway inflammation and hyperresponsiveness was adapted from Haczku et al. (2001 Am. J. Respir. Cell Mol. Biol. 25: 45-50) to determine the activity of the eradicate compounds (FIG. 11).
Briefly, BALB/c mice were sensitized intraperitoneally and challenged intranasally with Af extract as a form of a type of allergen challenge in the presence or absence of dexamethasone. With respect to sensitization, “naïve” mice received intranasal vehicle challenges only, with phosphate-buffered saline (PBS) where as “sensitized’ mice were injected intraperitoneally with 25 μg Af together with alum in 100 μl of PBS on days 1 and 14, followed by intranasal challenge on days 25, 26, and 27 with 25 μg of Af extract in 40 PBS μl in the presence or absence of dexamethasone (2.5 mg/kg in 100 μl saline) in combination with either o.g. treatment with ICI-735 (1 mg/kg or 10 mg/kg) or i.p. treatment with ICI-735 1 mg/kg. On day 28, sensitized mice were treated with methacholine challenge (2.5, 5, 10, 20 mg/mL). Methacholine challenge is to induce airway constriction.
With respect to the murine model of allergen induced AHR, BALB/c mice were sensitized and challenged via intranasal instillation of Aspergillus fumigatus (Af). […] Four hours after the last allergen challenge, airway function was assessed by flexivent. […]

[2] = test system: isolated rabbit Purkinje fibers; assay: Action potential of isolated rabbit Purkinje fibers
Description: Further assessment in rabbit Punkinje fibers was undertaken to directly measure concentration-dependent changes in action potential induced by ICI-735.

5-HT1B receptor = 5-HT1B receptor (Homo sapiens, UniProt P28222); assay: Serotonin-receptor binding assay; settings: 10 μM and 0.1 μM
Description: The methods employed in this study have been adapted from the scientific literature to maximize reliability and reproducibility. The experiments include contacting a serotonin type 1A, 1B, 1D, 2A, 2B, 2C, 3, 4, 5A, 6, and 7 receptor with a test compound and comparing the level of binding of serotonin or a control compound (e.g., fluphenazine) with that serotonin type 1A, 1B, 1D, 2A, 2B, 2C, 3, 4, 5A, 6, and 7 receptor with the level of serotonin binding or control compound binding with an otherwise identical serotonin type 1A, 1B, 1D, 2A, 2B, 2C, 3, 4, 5A, 6, and 7 receptor not contacted with the test compound. […] The skilled artisan would also appreciate, in view of the disclosure provided herein, that standard binding assays known in the art, or those to be developed in the future, can be used to assess the binding of serotonin or a control compound with a serotonin type 1A, 1B, 1D, 2A, 2B, 2C, 3, 4, 5A, 6, and 7 receptor in the presence or absence of the test compound to identify a useful compound.
ICI-735 and fluphenazine were tested for selective binding to 1A, 1B, 1D, 2A, 2B, 2C, 3, 4, 5A, 6, and 7 receptors at concentrations of 10 μM and 0.1 μM.

[3] = test system: panel of leukotriene and prostanoid receptors; assay: Receptor binding panel
muscarinic receptor M3 [4] = target: T1, muscarinic receptor M3 (Homo sapiens, UniProt P20309); assay: In vitro functional antagonism; type: biochemical
AdrR2 receptor = assay: Receptor binding
[5] = Pharmacokinetics, plasma levels in mice; type: in vivo, mouse
Experimental: Mice were treated with either 1.0 mg/kg or 10 mg/kg of ICI-735 by way of intraperitoneal administration. The plasma levels of ICI-735 were measured at baseline and various time points following administration (FIG. 6). […] Without wishing to be bound by any particular theory, it is believed that the effectiveness of ICI-735 to treat asthma can be achieved with a low dose (e.g, 1.0 mg/kg dose).
Mice were also treated with either 2.5 mg/kg intravenously or 5 mg/kg orally of ICI-735. The plasma levels of ICI-735 were measured at baseline and various time points following administration (FIG. 7). […] It was determined that oral bioavailability was approximately 20%. Therefore, it is believed that ICI-735 administration orally at approximately 1 mg/kg/day is effective at reducing lung resistence in patients with asthma.

MPR1-MDCK = MPR1-MDCK permeability, potential to cross the blood-brain barrier; type: in vitro ADME; settings: from A-B Papp and efflux ratio
Description: (§1) A criterion for selecting an agent for proceeding to clinical trials is whether the compound crosses the blood-brain barrier. […] Fluphenazine (ICI-01175) is used as a control compound that has the potential to cross the blood-brain barrier. Table 1 summarizes the results of the test compounds for their potential to cross the blood-brain barrier.

[6] = as above; type: in vitro ADME; settings: dog, MDCK
Description: as §1

muscarinic receptor M3 [7] = target: T1, muscarinic receptor M3; assay: Receptor binding

T1 sequence (P20309 whole entry): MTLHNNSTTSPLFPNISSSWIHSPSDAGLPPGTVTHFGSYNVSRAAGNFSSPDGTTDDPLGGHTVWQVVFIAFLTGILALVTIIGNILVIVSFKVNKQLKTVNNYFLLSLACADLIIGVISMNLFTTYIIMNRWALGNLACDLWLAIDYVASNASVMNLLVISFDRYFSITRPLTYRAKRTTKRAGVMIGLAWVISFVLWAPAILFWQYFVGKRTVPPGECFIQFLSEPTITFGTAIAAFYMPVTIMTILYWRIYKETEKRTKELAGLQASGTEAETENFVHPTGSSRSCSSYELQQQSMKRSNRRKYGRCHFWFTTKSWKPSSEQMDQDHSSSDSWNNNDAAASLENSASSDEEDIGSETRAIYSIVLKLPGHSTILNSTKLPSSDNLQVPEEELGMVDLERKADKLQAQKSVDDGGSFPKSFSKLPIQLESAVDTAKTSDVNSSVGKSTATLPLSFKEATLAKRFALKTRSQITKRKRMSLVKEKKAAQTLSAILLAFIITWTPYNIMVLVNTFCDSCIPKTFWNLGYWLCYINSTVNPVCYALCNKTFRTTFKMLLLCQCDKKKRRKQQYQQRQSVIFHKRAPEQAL
5-HT1B receptor, sequence (P28222 whole entry): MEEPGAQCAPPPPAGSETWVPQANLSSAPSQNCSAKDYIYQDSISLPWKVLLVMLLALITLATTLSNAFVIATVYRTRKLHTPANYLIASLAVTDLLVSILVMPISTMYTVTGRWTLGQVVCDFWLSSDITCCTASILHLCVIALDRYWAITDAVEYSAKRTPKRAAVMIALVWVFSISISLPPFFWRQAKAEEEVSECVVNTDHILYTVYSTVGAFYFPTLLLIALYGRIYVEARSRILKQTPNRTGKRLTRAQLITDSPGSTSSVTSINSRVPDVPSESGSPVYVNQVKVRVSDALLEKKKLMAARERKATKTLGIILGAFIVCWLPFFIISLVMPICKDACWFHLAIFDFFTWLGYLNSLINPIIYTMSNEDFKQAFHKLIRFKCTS

NCC(=O)NCCN1CCN(CCCN2c3ccccc3Sc3ccc(C(F)(F)F)cc32)CC1 [ICI-735]
AHR in Af sensitized mice ([1]; i.p. 1 mg/ml two hours prior to each intranasal challenge, flexivent four hours after last challenge): significantly inhibited | decrease of lung resistance / airway hyper-responsiveness to methacholine ([1]; intraperitoneal, from 0.1 mg/kg, one hour before or with methacholine challenge, compared with dexamethasone 2.5 mg/kg): at least as effective as 2.5 mg/kg dexamethasone; also recorded: decreased airway hyperresponsiveness | effect on naive animal airway contraction ([1]; naive mice): no effect | decrease of lung resistance / airway hyper-responsiveness to methacholine ([1]; oral (o.g.), 1 mg/kg or 10 mg/kg): effective at decreasing lung resistance | effect on action potential duration at 60% (APD60) and APD90 [2]: lack of effect | binding to 5-HT1B receptor as compared to fluphenazine (5-HT1B receptor): significant increase activity; also recorded: increased binding | binding to a panel of leukotriene and prostanoid receptors [3]: does not bind | in vitro functional antagonism for muscarinic receptor M3 (muscarinic receptor M3 [4]): weak in vitro functional antagonism; also recorded: weak or undetectable | binding to AdrR2 receptor (AdrR2 receptor): does not bind; also recorded: weak or undetectable | plasma levels after oral 5 mg/kg dose versus intravenous 2.5 mg/kg dose [5]: comparable | plasma levels after 1.0 mg/kg dose versus 10 mg/kg dose ([5]; intraperitoneal): comparable | bioavailability ([5]; mouse, plasma, oral, 5 mg/kg orally vs 2.5 mg/kg intravenously): ~20% | Brain Penetration Classification (MPR1-MDCK): Low (A-B Papp > 3.0 and Efflux Ratio > 10: Low) | Papp A→B ([6]; A-B direction): 0.23 ×10⁻⁶ cm/s | recovery ([6]; A-B direction, read-out: % Recovery A-B): 47% | Papp B→A ([6]; B-A direction): 28.6 ×10⁻⁶ cm/s | recovery ([6]; B-A direction, read-out: % Recovery B-A): 33% | efflux ratio ([6]; efflux ratio): 124 | binding to muscarinic receptor M3 (muscarinic receptor M3 [7]): weak binding; also recorded: weak or undetectable
